Assay results reported in the NIST ThermoML archive (doi:10.1016/j.jct.2013.09.001).

Legend:
[1] = xn = mol fraction of the nth substance listed; conditions: 101 kPa, Liquid; for mass density: Vibrating tube method; for viscosity: Concentric cylinders viscometry
[2] = 101 kPa, Liquid; for viscosity: Concentric cylinders viscometry; for mass density: Vibrating tube method

OCCNCCO [diethanolamine] + CC(=O)[O-].CCCCn1cc[n+](C)c1
[1], x1 = 1
Conditions	mass density [kg/m3]	viscosity [mPa·s]
293.15 K	1097.4	–
303.15 K	1090.5	386.6
313.15 K	1083.9	189.7
323.15 K	1077.1	101.2
333.15 K	1070.3	57.9
343.15 K	1063.5	35.3
353.15 K	–	22.7

CN(CCO)CCO [N-methyldiethanolamine]
[2]
Conditions	mass density [kg/m3]	viscosity [mPa·s]
293.15 K	1040.6	103.3
303.15 K	1032.8	57.3
313.15 K	1025.4	34.1
323.15 K	1017.8	21.6
333.15 K	1010	14.3
343.15 K	1002.3	9.9
353.15 K	–	7.2

CC(=O)[O-].CCCCn1cc[n+](C)c1 [1-butyl-3-methylimidazolium acetate] + OCCNCCO
[1]
Conditions	mass density, x2 = 0 [kg/m3]	mass density, x2 = 0.2 [kg/m3]	mass density, x2 = 0.4 [kg/m3]	mass density, x2 = 0.6 [kg/m3]	mass density, x2 = 0.8 [kg/m3]	viscosity, x2 = 0 [mPa·s]	viscosity, x2 = 0.2 [mPa·s]	viscosity, x2 = 0.4 [mPa·s]	viscosity, x2 = 0.6 [mPa·s]	viscosity, x2 = 0.8 [mPa·s]
293.15 K	1056.1	1058.7	1062.8	1068.8	1079.7	549.9	425	319.4	286.8	400.1
303.15 K	1049.6	1052.2	1056.3	1062.3	1073.1	257.4	208.3	176.1	150.8	197
313.15 K	1043.5	1046.2	1050.3	1056.2	1067	135.5	114	95.9	86.8	106.3
323.15 K	1037.4	1040.1	1044.2	1050.2	1060.7	78.4	68.4	59.2	53.8	62.2
333.15 K	1031.3	1034.1	1038.1	1044.1	1054.4	49	43.9	38.9	35.4	38.9
343.15 K	1025.4	1028.2	1032.2	1038.1	1048.3	32.5	29.8	26.9	24.6	25.8
353.15 K	–	–	–	–	–	22.7	21.3	19.4	17.8	17.9

OCCNCCO [diethanolamine]
[2]
Conditions	mass density [kg/m3]	viscosity [mPa·s]
293.15 K	1097.4	–
303.15 K	1090.5	386.6
313.15 K	1083.9	189.7
323.15 K	1077.1	101.2
333.15 K	1070.3	57.9
343.15 K	1063.5	35.3
353.15 K	–	22.7

CN(CCO)CCO [N-methyldiethanolamine] + CC(=O)[O-].CCCCn1cc[n+](C)c1
[1], x1 = 1
Conditions	mass density [kg/m3]	viscosity [mPa·s]
293.15 K	1040.6	103.3
303.15 K	1032.8	57.3
313.15 K	1025.4	34.1
323.15 K	1017.8	21.6
333.15 K	1010	14.3
343.15 K	1002.3	9.9
353.15 K	–	7.2

CC(=O)[O-].CCCCn1cc[n+](C)c1 [1-butyl-3-methylimidazolium acetate]
[2]
Conditions	mass density [kg/m3]	viscosity [mPa·s]
293.15 K	1056.1	549.9
303.15 K	1049.6	257.4
313.15 K	1043.5	135.5
323.15 K	1037.4	78.4
333.15 K	1031.3	49
343.15 K	1025.4	32.5
353.15 K	–	22.7

CC(=O)[O-].CCCCn1cc[n+](C)c1 [1-butyl-3-methylimidazolium acetate] + CN(CCO)CCO
[1]
Conditions	mass density, x2 = 0 [kg/m3]	mass density, x2 = 0.2 [kg/m3]	mass density, x2 = 0.4 [kg/m3]	mass density, x2 = 0.6 [kg/m3]	mass density, x2 = 0.8 [kg/m3]	viscosity, x2 = 0 [mPa·s]	viscosity, x2 = 0.2 [mPa·s]	viscosity, x2 = 0.4 [mPa·s]	viscosity, x2 = 0.6 [mPa·s]	viscosity, x2 = 0.8 [mPa·s]
293.15 K	1056.1	1052.6	1049.5	1046	1043.4	549.9	369.6	254.3	164.4	117.9
303.15 K	1049.6	1046.1	1043	1039.2	1036.4	257.4	188.9	139.8	94.9	68.9
313.15 K	1043.5	1040.1	1037	1033.1	1029.8	135.5	106.6	83.2	58.8	43.1
323.15 K	1037.4	1034.1	1030.9	1026.8	1023.1	78.4	65	52.9	38.7	28.4
333.15 K	1031.3	1028.1	1024.7	1020.5	1016.4	49	42.3	35.6	26.7	19.7
343.15 K	1025.4	1022.3	1018.8	1014.4	1009.8	32.5	29	25.1	19.3	14.2
353.15 K	–	–	–	–	–	22.7	20.7	18.3	14.4	10.6
